The source of these data is patent US20090011424A1, “Cancer-suppressing agents” (Tokyo Medical and Dental University, priority 2005, published 2009).

For one data set, the system named is IMR32 cells. As to the kind of experiment: soft agar colony formation after gene introduction. It is filed as cell-based, human. Conditions: 3 weeks, 500 μg/ml G418, vs empty vector. The protocol: (§1) Adherence to solid matter has been known as an example of a difference between properties of normal cells and those of cancer cells under culture conditions. In other words, it is necessary for normal cells to adhere to solid matter for cell proliferation (anchorage dependence). When normal cells are cultured in a soft agar medium (about 0.33%), they can not proliferate while floating in such medium. However, many cancer cells lack anchorage dependence so that they can proliferate in a soft agar medium. Since floating cancer cells cannot move in a soft agar medium, a single cancer cell is repeatedly divided such that the divided cells form a colony in 1 to 3 weeks time. Since there is a correlation between the ability of the cell to form a soft agar colony and the implanted tumor forming ability, the degree of such ability has been widely used as an index of malignancy (Shin, S. I., et al., Proc. Natl. Acad. Sci. USA 72, 4435, 1975). A full-length NR1I2 cDNA was inserted into pCMV-Tag3 vector (Stratagene) in which an myc peptide can be added to the amino terminal of an inserted gene (PCMV-Tag3-NR1I2). In addition, we already have discovered that a fusion product of a herpes-virus-derived VP16 protein and an NR1I2 protein has stronger transcriptional activity than that of an NR1I2 protein alone. […] Then, the number of colonies was counted (FIGS. 8A and 8B).

A further data set has as its system SMS-KAN cells. As to the kind of experiment: soft agar colony formation after gene introduction. The settings on record: 3 weeks, 500 μg/ml G418, vs empty vector. It is filed as cell-based, human. The protocol: as §1

“NR1I2 gene: human-derived gene, nuclear receptor subfamily 1, group I, member 2 (pregnane X receptor, PXR), nucleotide sequence SEQ ID NO: 1”: the number of colonies result in the data set on IMR32 cells and in the data set with SMS-KAN cells was “significantly reduced” throughout.
